For assay [1], the system named is hornerin. The assay is described as follows: Immunoblot of hornerin in HUVECs treated with growth factors. It counts as cell-based, human. The following applies: 24 hours treatment; growth factors at published B-max concentrations, EGF at increasing concentrations. The protocol: HUVECs were cultured in 10 cm dishes for 24 hours prior to a change to media containing VEGF (at B-max concentration), TCM, or VC. After 24 hours treatment, the cells were washed with DPBST two times and lysed with radioimmunoprecipitation assay (RIPA) buffer (Thermo Scientific). Lysate protein concentrations were measured by the bicinchoninic acid assay (Pierce, Waltham, MA, USA) and equivalent amounts of protein were loaded into precast 4-15% tris-glycine eXtended (TGX) polyacrylamide gels (Bio-Rad, Hercules, CA, USA). The proteins were resolved by electrophoresis and transferred to nitrocellulose membranes using the iBlot system (Invitrogen, Carlsbad, CA, USA). The membranes were then washed in Tris-buffered saline+1% Tween-20 (TBST), blocked for 30 minutes in TBST+2% milk solution, and incubated overnight at 4° C. with primary antibodies anti-hornerin (Abcam, Cambridge, UK, ab78909; (1:1000)) and anti-HSP90 (Cell Signaling Technology, Danvers, MA, USA, 4877; (1:1000)). The following day the membranes were washed and subsequently incubated with the secondary antibodies anti-goat HRP (R&D Systems, Minneapolis, MN, USA, HAF109; 1:5000) and anti-rabbit HRP (GE Healthcare, NA934V; 1:5000) for 45 minutes at RT. […]
Major constituents of TCM were determined using a Human Angiogenesis Antibody Array (Affymetrix, Santa Clara, CA, USA) per manufacturer's instructions. […]
In general terms: A western blot detects proteins with antibodies after separation by electrophoresis.

Assay [2] concerns hornerin. The assay is described as follows: Immunoblot of hornerin in L3.6pl cells treated with EGF. The assay is classed as cell-based, human. The following applies: EGF 1, 10 or 100 ng/mL, 48 hours.
The test system of assay [3] is hornerin. The assay can be described thus: Immunoblot of hornerin in human keratinocytes treated with EGF. It counts as cell-based. As to conditions: 48 hours.
Assay [4] has as its system TCM-treated HUVECs. The assay can be described thus: Phage-based ELISA on treated HUVECs with two-way ANOVA. The assay is classed as binding, human. The protocol:
HUVEC were plated in MaxiSorp 96-well plates (NUNC, Rochester, NY, USA) and cultured for 24 hours, at which time the cells were treated with media containing VEGF (VEGFCM) at B-max concentration (Igarashi et al., 2003) or TCM for an additional 24 h. ELISA was initiated by adding 1010 isolated phage to each well for a 1 hour incubation. After three washes with DPBS+0.1% Tween-20 (DPBST), the cells were incubated with horse radish peroxidase (HRP)-tagged anti-M13 antibody (GE Healthcare, Little Chalfont, UK, 27-9421-01; (1:3000)) for 30 min. The plates were washed three additional times (DBPST) then developed with 200 μL 3,3′,5,5′-Tetramethylbenzidine (Sigma) for 10 minutes. The A650 was measured on a microplate reader (Molecular Devices, Sunnyvale, CA, USA).
Absorbance values were corrected by comparison to unmodified control KE phage. […]
As VEGF is highly abundant in the pancreatic tumor milieu, clones were further segregated based on their ability to bind to VEGF-treated HUVECs vs. tumor conditioned media (TCM)-treated HUVECs. […] Enzyme-linked immunoabsorbent assay (ELISA) results were analyzed by two-way analysis of variance (ANOVA) to find clones that consistently bound to HUVECs treated with TCM, but not vehicle control (VC) or VEGF-supplemented control media (VEGFCM; FIGS. 2A and 2B). […]
A general note: ELISA stands for enzyme-linked immunosorbent assay.

The target in assay [5] is T1, hornerin (Homo sapiens, UniProt Q86YZ3).
T1 construct: A unique band in the PTEM 9 lane that was not present in the control sample corresponded to the predicted molecular weight of hornerin; endogenous in cells
The assay can be described thus: Phage display-based functional proteomics (pulldown, MS/MS, anti-hornerin immunoblot). The assay is classed as binding. As to conditions: tandem mass spectroscopy of pulldown lysates, confirmed by immunoblot. The protocol: The gel piece was transferred to a siliconized tube and washed and destained in 200 μL 50% methanol overnight. The gel pieces were dehydrated in acetonitrile, rehydrated in 30 μL of 10 mM dithiolthreitol in 0.1M ammonium bicarbonate, and reduced at room temperature for 0.5 hours. The DTT solution was removed and the sample alkylated in 30 μL 50 mM iodoacetamide in 0.1M ammonium bicarbonate at room temperature for 0.5 hours. The reagent was removed and the gel pieces dehydrated in 100 μL acetonitrile. The acetonitrile was removed and the gel pieces rehydrated in 100 μL 0.1M ammonium bicarbonate. The pieces were dehydrated in 100 μL acetonitrile, the acetonitrile removed and the pieces completely dried by vacuum centrifugation. […]
The LC-MS system consisted of a Thermo Electron Velos Orbitrap ETD mass spectrometer system with a Protana nanospray ion source interfaced to a self-packed 8 cm×75 μm id Phenomenex Jupiter 10 μm C18 reversed-phase capillary column. […] The digest was analyzed using the double play capability of the instrument acquiring full scan mass spectra (Orbitrap, 60 K resolution) to determine peptide molecular weights followed by product ion spectra (ion trap) to determine amino-acid sequence in sequential scans. […]
The data were analyzed by database searching using the Sequest search algorithm within Proteome Discoverer (v1.2) against IPI Human (v3.78, 86,702 entries). […]

T1 sequence (Q86YZ3 whole entry): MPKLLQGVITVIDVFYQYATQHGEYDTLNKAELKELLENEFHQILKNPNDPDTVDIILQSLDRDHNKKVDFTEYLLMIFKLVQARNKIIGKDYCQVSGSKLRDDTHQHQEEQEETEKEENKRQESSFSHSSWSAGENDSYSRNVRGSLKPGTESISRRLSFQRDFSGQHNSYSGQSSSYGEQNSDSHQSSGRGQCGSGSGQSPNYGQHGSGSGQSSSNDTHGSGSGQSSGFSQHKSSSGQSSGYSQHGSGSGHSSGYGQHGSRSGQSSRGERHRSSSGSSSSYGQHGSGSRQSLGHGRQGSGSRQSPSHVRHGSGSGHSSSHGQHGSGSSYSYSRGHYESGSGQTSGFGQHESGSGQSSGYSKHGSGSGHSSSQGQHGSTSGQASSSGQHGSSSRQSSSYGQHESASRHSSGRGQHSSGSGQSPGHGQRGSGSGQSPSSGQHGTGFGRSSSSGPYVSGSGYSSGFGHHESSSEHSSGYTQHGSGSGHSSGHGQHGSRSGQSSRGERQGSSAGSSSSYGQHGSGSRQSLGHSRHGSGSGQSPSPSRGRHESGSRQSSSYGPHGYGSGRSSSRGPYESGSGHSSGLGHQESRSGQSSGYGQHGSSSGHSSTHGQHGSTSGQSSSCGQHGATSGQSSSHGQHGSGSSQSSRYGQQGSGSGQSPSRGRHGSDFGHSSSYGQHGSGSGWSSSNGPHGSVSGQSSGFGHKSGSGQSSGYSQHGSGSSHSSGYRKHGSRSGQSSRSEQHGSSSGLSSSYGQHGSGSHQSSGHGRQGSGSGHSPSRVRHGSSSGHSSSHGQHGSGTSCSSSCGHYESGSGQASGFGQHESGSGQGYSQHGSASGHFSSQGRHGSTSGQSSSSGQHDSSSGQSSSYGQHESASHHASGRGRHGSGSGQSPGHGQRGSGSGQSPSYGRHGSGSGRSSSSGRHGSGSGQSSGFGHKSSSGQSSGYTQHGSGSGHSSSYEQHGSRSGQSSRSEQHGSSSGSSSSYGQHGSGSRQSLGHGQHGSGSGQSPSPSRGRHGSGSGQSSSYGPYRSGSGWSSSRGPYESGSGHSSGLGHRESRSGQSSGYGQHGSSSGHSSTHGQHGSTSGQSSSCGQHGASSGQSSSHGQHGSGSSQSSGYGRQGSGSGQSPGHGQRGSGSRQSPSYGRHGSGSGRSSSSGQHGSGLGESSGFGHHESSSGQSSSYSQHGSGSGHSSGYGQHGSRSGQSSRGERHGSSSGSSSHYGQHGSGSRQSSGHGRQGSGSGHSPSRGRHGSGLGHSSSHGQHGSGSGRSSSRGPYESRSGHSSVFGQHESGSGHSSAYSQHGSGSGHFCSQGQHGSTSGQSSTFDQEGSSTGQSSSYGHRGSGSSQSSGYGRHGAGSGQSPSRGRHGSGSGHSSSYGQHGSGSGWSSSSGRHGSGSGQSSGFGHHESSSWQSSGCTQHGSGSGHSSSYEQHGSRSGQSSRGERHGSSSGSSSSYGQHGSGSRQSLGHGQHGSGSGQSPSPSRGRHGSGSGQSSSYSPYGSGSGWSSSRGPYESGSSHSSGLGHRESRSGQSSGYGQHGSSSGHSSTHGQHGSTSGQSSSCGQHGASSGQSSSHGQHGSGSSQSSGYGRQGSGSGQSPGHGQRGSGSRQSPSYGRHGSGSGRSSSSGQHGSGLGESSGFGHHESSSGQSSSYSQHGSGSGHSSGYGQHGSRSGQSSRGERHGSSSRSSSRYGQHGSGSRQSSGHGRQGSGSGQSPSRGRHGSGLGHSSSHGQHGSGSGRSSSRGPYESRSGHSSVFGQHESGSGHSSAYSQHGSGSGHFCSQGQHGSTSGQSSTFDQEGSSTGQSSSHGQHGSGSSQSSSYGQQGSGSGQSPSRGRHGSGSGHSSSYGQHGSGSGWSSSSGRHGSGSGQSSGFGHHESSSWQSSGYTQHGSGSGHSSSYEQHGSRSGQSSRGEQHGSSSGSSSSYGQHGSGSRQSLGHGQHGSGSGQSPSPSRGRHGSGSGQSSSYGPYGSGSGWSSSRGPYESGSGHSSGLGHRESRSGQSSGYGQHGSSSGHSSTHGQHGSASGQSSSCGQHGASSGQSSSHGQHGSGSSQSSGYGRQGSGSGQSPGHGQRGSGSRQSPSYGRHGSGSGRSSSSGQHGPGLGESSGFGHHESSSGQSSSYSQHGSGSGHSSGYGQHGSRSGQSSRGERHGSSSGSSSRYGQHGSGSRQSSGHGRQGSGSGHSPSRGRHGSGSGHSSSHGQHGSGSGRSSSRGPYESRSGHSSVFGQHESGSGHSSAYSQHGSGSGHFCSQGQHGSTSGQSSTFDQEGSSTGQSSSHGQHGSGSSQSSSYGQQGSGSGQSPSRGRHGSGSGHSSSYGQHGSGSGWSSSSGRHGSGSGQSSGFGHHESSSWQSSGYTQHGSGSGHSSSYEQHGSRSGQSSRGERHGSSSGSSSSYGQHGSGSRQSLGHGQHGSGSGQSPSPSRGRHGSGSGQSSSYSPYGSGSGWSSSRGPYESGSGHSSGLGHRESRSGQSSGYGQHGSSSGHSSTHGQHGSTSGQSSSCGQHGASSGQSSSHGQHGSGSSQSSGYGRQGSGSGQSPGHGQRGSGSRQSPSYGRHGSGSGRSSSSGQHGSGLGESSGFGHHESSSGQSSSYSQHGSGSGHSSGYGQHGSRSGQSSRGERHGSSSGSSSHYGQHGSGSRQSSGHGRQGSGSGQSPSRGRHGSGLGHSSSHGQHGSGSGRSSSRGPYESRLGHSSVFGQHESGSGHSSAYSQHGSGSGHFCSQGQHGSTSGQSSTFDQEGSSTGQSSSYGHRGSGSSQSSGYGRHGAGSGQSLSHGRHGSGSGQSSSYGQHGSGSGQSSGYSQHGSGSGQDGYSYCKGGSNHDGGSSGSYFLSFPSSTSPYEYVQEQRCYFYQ

As for EGF: recombinant human EGF (PeproTech), the “hornerin expression in HUVECs” value in assay [1] is listed as “increased”. Moreover, in assay [2], the “hornerin expression in L3.6pl cells” value is “concentration-dependent increase in expression”. In assay [3], the “hornerin expression in keratinocytes” value is recorded as “more modest response”.
With “SLLNRMP (listed as Homo sapiens) [PTEM 9]”, the “specificity (fold over vehicle control) among clones binding selectively to TCM-treated HUVECs” value in assay [4] is “highest average specificity”. In addition, the binding partner identified entry in assay [5] was “hornerin as the candidate protein”.

Source of the values: US12059429B2, “Hornerin: a novel non-VEGF mediated angiogenic protein expressed in both human and mouse angiogenic endothelial cells and human pancreatic cancer cells” (University of Virginia Patent Foundation, priority 2018, dated 2024).
